Among the test systems are NCI-H522 lung; M19-MEL melanoma; HCT-15 colon; K-562 leukemia; LXFL 529 NSCLC; SNB-78 CNS; SW-620 colon; KM12 colon; DMS 273 small cell lung; RXF 393 renal; HCT-116 colon.
Common to all, as to test: inhibition of tumour cell growth, NCI panel, 48 h

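Briefly, cells in 96-well plates were exposed to five compound concentrations for 48 h, and endpoints were estimated by linear interpolation. Definition used: TGI = concentration required for complete inhibition of growth.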

Here are results for twelve compounds from PubChem BioAssay (NCI).

For the compound `CN1c2ccccc2N(C(=O)c2ccc([N+](=O)[O-])cc2)C(CC(=O)O)c2cccn21` (stereo unspecified), the TGI in the experiment on NCI-H522 lung, in the experiment on M19-MEL melanoma, in the experiment with HCT-15 colon, in the experiment on K-562 leukemia, in the experiment with LXFL 529 NSCLC and with SNB-78 CNS was greater than 100 µM in each case. The TGI with SW-620 colon, in the experiment with KM12 colon, in the experiment with DMS 273 small cell lung and in the experiment on RXF 393 renal was greater than 100 µM each time.

On to `Cn1c2c(c3ccccc31)CCN(CCCCN1CCCCC1)C2=O`, for which the TGI in the experiment with NCI-H522 lung, in the experiment with M19-MEL melanoma, in the experiment on HCT-15 colon, with HCT-116 colon, in the experiment on K-562 leukemia and with LXFL 529 NSCLC was greater than 100 µM in each case. In addition, the TGI in the experiment with SNB-78 CNS, in the experiment on SW-620 colon, with DMS 273 small cell lung and in the experiment on RXF 393 renal was greater than 100 µM throughout.

In the case of `C/C(=C1/N=C(c2cc([N+](=O)[O-])ccc2Cl)N(c2cccc(C)c2)C1=O)c1cc2ccccc2oc1=O`, the TGI in the experiment with NCI-H522 lung, with M19-MEL melanoma, with HCT-15 colon, with HCT-116 colon, with K-562 leukemia and in the experiment with LXFL 529 NSCLC was greater than 100 µM throughout. Besides, the TGI in the experiment on SNB-78 CNS, in the experiment on SW-620 colon, in the experiment with KM12 colon, in the experiment with DMS 273 small cell lung and in the experiment on RXF 393 renal was greater than 100 µM each time.

Regarding `CN(CCN1C(=O)c2cc([N+](=O)[O-])cc3cc([N+](=O)[O-])cc(c23)C1=O)CCN1C(=O)c2cc([N+](=O)[O-])cc3cc([N+](=O)[O-])cc(c23)C1=O`, the TGI in the experiment with NCI-H522 lung was 1.86 µM; in the experiment with M19-MEL melanoma, 4.4 µM; with HCT-15 colon, 8.65 µM; with HCT-116 colon it was 9.18 µM; in the experiment on K-562 leukemia, greater than 100 µM; with LXFL 529 NSCLC, 20.1 µM. Further, the TGI is 5.91 µM with SNB-78 CNS; 16.7 µM with SW-620 colon; greater than 35 µM with KM12 colon; 18.4 µM with DMS 273 small cell lung; 1.04 µM with RXF 393 renal.

For the compound `Cc1nc(-n2nc(-c3ccccc3)cc2-c2ccccc2)sc1C(=O)/C=C/c1ccc(/C=C/C(=O)c2sc(-n3nc(-c4ccccc4)cc3-c3ccccc3)nc2C)cc1`, the TGI in the experiment on NCI-H522 lung was 34.4 µM; in the experiment with M19-MEL melanoma, 63 µM; in the experiment on HCT-15 colon, greater than 100 µM; in the experiment on HCT-116 colon it was 37.4 µM; in the experiment with K-562 leukemia it was greater than 100 µM; with LXFL 529 NSCLC, 67.3 µM. For the same compound, the TGI was 99.8 µM in the experiment with SNB-78 CNS; greater than 100 µM in the experiment with SW-620 colon; 35.8 µM in the experiment with KM12 colon; 44.9 µM in the experiment with DMS 273 small cell lung; 42.9 µM in the experiment with RXF 393 renal.

`O=C1NC(Cc2ccc(O)cc2)C(=O)N2CCCC12` (stereo unspecified): the TGI with NCI-H522 lung, in the experiment on M19-MEL melanoma, in the experiment on HCT-15 colon, in the experiment on HCT-116 colon, in the experiment with K-562 leukemia and in the experiment with LXFL 529 NSCLC was greater than 100 µM each time. In addition, the TGI in the experiment on SNB-78 CNS, in the experiment with SW-620 colon, in the experiment with KM12 colon, in the experiment on DMS 273 small cell lung and in the experiment on RXF 393 renal was greater than 100 µM throughout.

Consider `COC(=O)CCC(NC(=S)N/N=C(\C)c1cnc2ccccc2n1)C(=O)OC` (stereo unspecified), for which the TGI in the experiment with NCI-H522 lung is 38.2 µM; in the experiment on HCT-15 colon, greater than 100 µM; in the experiment on HCT-116 colon it was 38.6 µM; in the experiment with K-562 leukemia it was greater than 100 µM; in the experiment on LXFL 529 NSCLC it was greater than 100 µM; in the experiment with SNB-78 CNS it was greater than 100 µM. Also, the TGI with SW-620 colon was greater than 100 µM; in the experiment on KM12 colon it was 80.4 µM; in the experiment with DMS 273 small cell lung it was greater than 100 µM; in the experiment on RXF 393 renal it was 86 µM.

Regarding `CN(C)C=Nc1ccn(CCO)c(=O)n1`, the TGI with NCI-H522 lung, in the experiment with M19-MEL melanoma, in the experiment on HCT-15 colon, with HCT-116 colon, in the experiment on K-562 leukemia and with LXFL 529 NSCLC was greater than 100 µM throughout. For the same compound, the TGI in the experiment with SNB-78 CNS, in the experiment with SW-620 colon, in the experiment on KM12 colon, in the experiment with DMS 273 small cell lung and in the experiment on RXF 393 renal was greater than 100 µM each time.

In the case of `COC(=O)C(C(=O)C(=O)Nc1c(C)cccc1C)c1cnc2ccccc2n1` (stereo unspecified), the TGI with NCI-H522 lung, in the experiment with HCT-15 colon, with HCT-116 colon, in the experiment on K-562 leukemia, in the experiment with LXFL 529 NSCLC and in the experiment with SNB-78 CNS was greater than 100 µM each time. Moreover, the TGI in the experiment on SW-620 colon, in the experiment with KM12 colon, in the experiment on DMS 273 small cell lung and in the experiment with RXF 393 renal was greater than 100 µM each time.

With `N#CCCN(c1ccc(C=Nc2ccccc2)cc1)S(=O)(=O)c1ccccc1`, the TGI with NCI-H522 lung, in the experiment with M19-MEL melanoma, with HCT-116 colon, with K-562 leukemia, with LXFL 529 NSCLC and with SNB-78 CNS was greater than 100 µM throughout. Also, the TGI in the experiment with SW-620 colon, in the experiment with KM12 colon and with DMS 273 small cell lung was greater than 100 µM in each case.

For the compound `O=C(N/C(=C\c1ccc(Cl)cc1)c1nc2ccccc2[nH]1)c1ccccc1`, the TGI with NCI-H522 lung was 30.7 µM; with M19-MEL melanoma, 34.7 µM; in the experiment on HCT-15 colon, greater than 100 µM; in the experiment on HCT-116 colon, 29.1 µM; in the experiment with K-562 leukemia it was 38.8 µM; in the experiment with LXFL 529 NSCLC it was 38.6 µM. The TGI in the experiment with SNB-78 CNS was 85.4 µM; in the experiment on SW-620 colon, 64 µM; in the experiment on KM12 colon, 33.6 µM; in the experiment on DMS 273 small cell lung, 42.9 µM; in the experiment on RXF 393 renal, 42.7 µM.

`CN1C(=O)CCC1(O)C1C=CC=CC1` (stereo unspecified): the TGI with NCI-H522 lung, in the experiment with M19-MEL melanoma, in the experiment on HCT-15 colon, with HCT-116 colon, in the experiment with K-562 leukemia and in the experiment on LXFL 529 NSCLC was greater than 100 µM each time. Further, the TGI with SNB-78 CNS, in the experiment on SW-620 colon, in the experiment with KM12 colon, in the experiment on DMS 273 small cell lung and in the experiment on RXF 393 renal was greater than 100 µM throughout.
